The source of these data is article PMC6364417, “Kinase inhibitor library screening identifies synergistic drug combinations effective in sensitive and resistant melanoma cells” (Journal of Experimental & Clinical Cancer Research : CR, 2019).

What all share (assay): Kinase inhibitor library screening, PrestoBlue cell viability, 1 or 10 μM, 72 h
The test system of one assay is A375 cells (parental). As to conditions: A375 Parental, 72 h. As to the method: (§1) After 72 h of treatment, cell viability was assessed using the PrestoBlue Cell Viability Reagent (ThermoFisher Scientific). Measurements were performed with the CLARIOstar Monochromator microplate reader (BMG Labtech).
(§2) Kinase inhibitor library screening. […] Each cell line was treated in its sensitive form (parental), and also as 2 resistant derivatives, which were made resistant to either Vemurafenib (XP) or Dabrafenib (GP). Drugs were added at 2 different concentrations, 1 and 10 μM, for 72 h and cell viability was assessed using the PrestoBlue Cell Viability assay. Results are depicted as % viability compared to untreated cells. Each cell line was analyzed at least in duplicate. […] (XLSX 95 kb)

The subject of assay [1] is IGR37-GP cells (Dabrafenib-resistant). The conditions noted are these: IGR37 GP, 72 h. Here is the method:
as §1, §2

The subject of the next assay is IGR37 cells (parental). The conditions noted are these: IGR37 Parental, 72 h. Here is the method:
as §1, §2

Assay [2] deals with IGR37-XP cells (Vemurafenib-resistant). As to conditions: IGR37 XP, 72 h. As to the method: as §1, §2
Assay [3] relates to A375-GP cells (Dabrafenib-resistant). The conditions noted are these: A375 GP, 72 h. As to the method: as §1, §2
The subject of a further assay is 501Mel cells (parental). As to conditions: 501Mel Parental, 72 h. Here is the method: as §1, §2
Assay [4] relates to A375-XP cells (Vemurafenib-resistant). The conditions noted are these: A375 XP, 72 h. Here is the method: as §1, §2
Assay [5] deals with 501Mel-GP cells (Dabrafenib-resistant). As to conditions: 501Mel GP, 72 h. Here is the method: as §1, §2
Assay [6] concerns 501Mel-XP cells (Vemurafenib-resistant). The conditions noted are these: 501Mel XP, 72 h. As to the method:
as §1, §2

Turning to `O=C1NC(=O)C(=Cc2ccc(-c3ccc(F)cc3)o2)S1` (stereo in doubt) [CAY10505], the “Cell viability in kinase inhibitor library screening, A375 Parental, 10μΜ” value in the assay with A375 cells (parental) (10μΜ) was found to be 93.9. The “Cell viability in kinase inhibitor library screening, A375 Parental, 1μΜ” value in the assay with A375 cells (parental) (1μΜ) came to 105.4. Besides, the Cell viability in kinase inhibitor library screening, IGR37 GP, 10μΜ in assay [1] (10μΜ) came out at 94.4%. The “Cell viability in kinase inhibitor library screening, IGR37 GP, 1μΜ” value in assay [1] (1μΜ, in %) was found to be 98.2. The “Cell viability in kinase inhibitor library screening, IGR37 Parental, 1μΜ” value in the assay on IGR37 cells (parental) (1μΜ, in %) is given as 103.7. Besides, the “Cell viability in kinase inhibitor library screening, IGR37 Parental, 10μΜ” value with IGR37 cells (parental) (10μΜ, in %) came out at 103.3. In assay [2] (10μΜ), this compound gave a Cell viability in kinase inhibitor library screening, IGR37 XP, 10μΜ of 77.3%. Moreover, the “Cell viability in kinase inhibitor library screening, A375 GP, 1μΜ” value in assay [3] (1μΜ) turned out to be 99.9. In the assay on 501Mel cells (parental) (1μΜ, in %), the “Cell viability in kinase inhibitor library screening, 501Mel Parental, 1μΜ” value is on record as 99.8. In the assay on 501Mel cells (parental) (10μΜ, in %), the “Cell viability in kinase inhibitor library screening, 501Mel Parental, 10μΜ” value stood at 97.3. Further, in assay [4] (1μΜ), the “Cell viability in kinase inhibitor library screening, A375 XP, 1μΜ” value is recorded as 107.0. Also, the “Cell viability in kinase inhibitor library screening, A375 XP, 10μΜ” value in assay [4] (10μΜ) is listed as 110.5. In addition, the “Cell viability in kinase inhibitor library screening, 501Mel GP, 1μΜ” value in assay [5] (1μΜ, in %) was 96.4. The “Cell viability in kinase inhibitor library screening, 501Mel GP, 10μΜ” value in [5] (10μΜ, in %) came out at 89.6. The “Cell viability in kinase inhibitor library screening, 501Mel XP, 1μΜ” value in assay [6] (1μΜ, in %) was 99.8. Moreover, the “Cell viability in kinase inhibitor library screening, 501Mel XP, 10μΜ” value in [6] (10μΜ, in %) is 90.3.

With `Cc1[nH]nc2ccc(-c3cncc(OC[C@@H](N)Cc4ccccc4)c3)cc12` [A-674563], the “cell viability (kinase inhibitor library screening)” value with A375 cells (parental) (10μΜ) stood at 4.6%; in the assay on A375 cells (parental) (1μΜ) it was 82.1%; in assay [1] (1μΜ), 99.0%; in assay [1] (10μΜ), 2.8%; in the assay with IGR37 cells (parental) (1μΜ), 96.7%; in the assay with IGR37 cells (parental) (10μΜ) it was 1.9%. Moreover, the “cell viability (kinase inhibitor library screening)” value came out at 78.0% in assay [2] (1μΜ); 2.1% in assay [2] (10μΜ); 63.4% in [3] (1μΜ); 2.7% in assay [3] (10μΜ); 73.1% in the assay with 501Mel cells (parental) (1μΜ); 1.4% in the assay on 501Mel cells (parental) (10μΜ). The “cell viability (kinase inhibitor library screening)” value is on record as 54.3% in assay [4] (1μΜ); 6.6% in assay [4] (10μΜ); 64.5% in assay [5] (1μΜ); 0.638% in [5] (10μΜ); 56.5% in assay [6] (1μΜ); 0.5% in assay [6] (10μΜ).

Consider `N#Cc1c(O)c2c(-c3ccc(-c4ccccc4O)cc3)csc2[nH]c1=O` [A-769662], for which the “cell viability (kinase inhibitor library screening)” value in the assay with A375 cells (parental) (10μΜ) is reported as 97.0%; in the assay on A375 cells (parental) (1μΜ), 105.0%; in [1] (10μΜ), 94.7%; in the assay on IGR37 cells (parental) (1μΜ), 105.9%; with IGR37 cells (parental) (10μΜ), 111.3%; in assay [2] (1μΜ) it was 104.5%. The “cell viability (kinase inhibitor library screening)” value was determined as 84.8% in assay [2] (10μΜ); 96.0% in assay [3] (10μΜ); 99.2% in the assay on 501Mel cells (parental) (1μΜ); 97.1% with 501Mel cells (parental) (10μΜ); 104.3% in assay [4] (1μΜ); 87.9% in assay [5] (10μΜ). The entries for the “cell viability (kinase inhibitor library screening)” value in [6] (1μΜ) and in assay [6] (10μΜ) were 97.4% and 85.6%, respectively.
